Laboratory results as given in patent US12643867B2, “Compositions and uses thereof” (University of Virginia Patent Foundation, priority 2017, dated 2026).

Experiments:
Assay type in all cases: binding
[1] = target: T1, recombinant DGKα (Rattus norvegicus, UniProt P51556); assay: Gel-based ATP acyl phosphate chemical proteomic assay; details: compounds 100 μM (ATP 1 mM; RF001 at indicated concentrations), 30 min; probe 10 μM
T1 construct: expressed in transfected cells; host or cells: HEK293T (SILAC HEK293T for LC-MS)
Experimental: Cell pellets were resuspended in kinase buffer (Dulbecco's PBS (DPBS, Hyclone), 20 mM MgCl2, EDTA-free protease inhibitors (Pierce)) and then lysed by sonication (3×1 sec pulse, 20% amplitude). The cell lysates were then subjected to centrifugation (100,000×g, 45 min at 4° C.) to isolate the cytosolic fraction in the supernatant and the membrane fraction as a pellet. The membrane pellet was resuspended in kinase buffer by sonication. […] The only exception was experiments involving DGKE; recombinant DGKE protein was most prominently expressed in the membrane fraction and so this fraction was utilized to study DGKE enzyme (see FIG. 8). Protein concentrations were measured using the Bio-Rad DC protein assay. Samples were stored at −80° C. until use.
Proteome concentration was adjusted to 2 mg/mL in kinase buffer. Proteomes were first pre-treated with compound (0.6 μL, 50× stock in DMSO) mixed with gentle flicking, and incubated for 30 min at 25° C. in a microfuge tube (30 μL reaction volume). […] Reactions were then quenched with 10 AL of 4×SDS-PAGE loading buffer. Protein samples (15 μL) were loaded onto 4-20% TGX Stain-Free Protein Midi Gel and resolved by SDS-PAGE at 150V for 55 min. Proteins were then transferred to a nitrocellulose blot by Bio-Rad Trans-Blot Turbo Transfer System (25V. 10 min) to enhance sensitivity. The nitrocellulose blot was then incubated in blocking solution (30 mL, 3% BSA in TBS-T) for 1 h at 25° C. with gentle shaking. The blot was then transferred immediately to antibody solution (30 mL, 5% BSA in ddH2O with 0.1% Tween20 and 1:3000 Streptavidin DyLight 550) and incubated for 2 h at 25° C. with gentle shaking. The blot was then rinsed 5 times for 5 min in TBS-T. and then transferred into ddH2O. The blot was then imaged by in-blot fluorescence scanning on a ChemiDoc MP Imaging System. Fluorescence intensity signals were normalized to total lane protein using the Bio-rad Stain Free imaging (Posch et al., 2013).
The percentage of enzyme activity remaining was determined by comparing integrated band intensities or luminescence of inhibitor—with DMSO-treated samples for gel-based chemical proteomic or ADP-glo assays, respectively. For both chemical proteomic and ADP-glo methods, nonlinear regression analysis was used to determine the IC50 values from a dose-response curve generated using GraphPad Prism. Data are shown as mean±s.e.m. Determination of significance was performed by one-way ANOVA. All statistical analyses were performed using GraphPad Prism.

[2] = target: T2, DGKA (Diacylglycerol kinase alpha) (Rattus norvegicus, UniProt P51556); assay: SILAC LC-MS ATP acyl phosphate probe competition, recombinant DGK-HEK293T lysates
T2 construct: expressed in transfected cells; host or cells: HEK293T (SILAC HEK293T for LC-MS)
Experimental: All other vectors were gifted to Dr. Kevin Lynch (University of Virginia, School of Medicine) by Dr. Kaoru Goto (Yamagata University, School of Medicine) and Dr. Fumio Sakane (Chiba University) and were kindly shared with us: pcDNA3-FLAG-DGKA (rat), pCMV-Tag2B-FLAG-DGKQ (human), pcDNA3-DGKE-3×Flag (human), and pCMV-SPORT6-HA-DGKZ (human). HEK293T cells were plated at a concentration of 400,000 cells in complete DMEM and grown to 50-60% confluency. A polyethyleneimine (PEI) stock solution was prepared (1 mg/mL, pH 7.4) and filter sterilized. Serum-free DMEM (600 μL) was mixed gently with 2.6 μg DNA and 20 μL of sterile PEI (1 mg/mL, pH 7.4) in a sterile microfuge tube. Mixtures were incubated for 30 min at 25° C. The mixture was then added drop-wise to each 10 cm^2 plate, rocked back and forth to mix, and placed back in the incubator. Cell pellets were harvested after two full days of growth, snap-frozen in liquid N2, and stored at −80° C. until use. Recombinant proteins were produced by transient transfection in SILAC HEK293T cells using the procedure described above, except that cells were plated at a concentration of 1×10^6 cells per 10 cm^2 plate and grown to ˜70% confluency prior to introducing transfection mixture.
Proteomes were diluted to 2 mg/ml in kinase buffer. The light and heavy proteomes (0.5 mg, 250 μL total reaction volume) were pre-treated with vehicle or compound, respectively (5 μL, DMSO (light) or 50× stock in DMSO (heavy)), mixed gently, and incubated at 25° C. for 30 min. […] After incubation, matched light and heavy proteomes were transferred and mixed in a 1:1 ratio in a two-dram vial containing 4:1:3 MeOH/CHCl3/H2O (2 mL MeOH, 500 AL CHCl3, 1.5 mL H2O) for extraction of proteins to remove excess probe, quickly vortexed, and centrifuged at 1,400×g for 3 min to pellet protein. Organic and aqueous layers were removed using a Pasteur pipette, and the protein pellet was transferred to a screw-top tube in 600 μL MeOH. A second extraction was performed by adding CHCl3 (150 μL) and H2O (600 μL) to each sample, vortexed, and centrifuged at 1,400×g for 3 min to pellet protein. Organic and aqueous layers were removed by pipetting. MeOH added to pellet (600 μL) and pellets were re-suspended by sonication (3×1 sec pulse, 20% amplitude) for a final extraction. Samples were then centrifuged at 17,000×g for 5 min to pellet protein and MeOH was removed by pipetting. […] To desalt the samples, each was transferred to a two-dram glass vial, and to the vial 4:1:2 MeOH/CHCl3/H2O (2 mL MeOH, 500 AL CHCl3, 1 mL H2O) was added. The vials were vortexed quickly, spun at 1.400×g for 3 min to pellet protein, and aqueous and organic layers were removed using a Pasteur pipette. The resulting protein pellet was transferred to a screw-top tube in 600 μL MeOH, and then CHCl3 (150 μL) and HO (600 μL) were added to extract protein a second time. The samples were vortexed quickly, centrifuged at 1,400×g to pellet protein, and the aqueous and organic layers were removed by pipetting. Resulting protein pellet was suspended in MeOH (600 μL) via sonication (3×1 sec pulse, 20% amplitude), centrifuged at 17,000×g for 5 min to pellet protein, and MeOH removed by pipetting. Protein pellets were then re-suspended in 25 mM ammonium bicarbonate (500 μL) and digested with 7.5 μg Trypsin/Lys-C(Promega, 15 μL, 0.5 μg/μL) for 3 h at 37° C. Avidin-agarose beads (Thermo Scientific Pierce, 100 AL aliquot per sample) were washed three times by adding 10 mL DPBS, centrifuged at 1,400×g for 1 min, and decanting. This wash step was repeated for a total of 3 times. Digested protein samples were mixed with washed avidin beads (100 μL) and brought to a volume of 5.5 mL with DPBS in a 15 mL conical and rotated for 1 h to enrich samples for the covalent desthiobiotin modification. The beads were washed with 25 mM ammonium bicarbonate (3× with 10 mL, centrifuge at 1,400×g for 3 min, decant) and then H2O (3× with 10 mL, centrifuge at 1,400×g for 3 min, decant).

[3] = target: T3, hDGKa C1 domain cysteines (Homo sapiens, UniProt P23743); assay: JWB003 labeling competition in vitro
T3 construct: expressed in transfected cells; host or cells: HEK293T
Experimental: • 1. HEK293T cells were harvested in cold PBS. • a. Cells were transferred to Eppendorf tube. • 2. Cells were lysed via tip sonicator. • 3. Cells were fractionated into membrane and soluble fraction. • a. 100,000×G for 45 minutes at 4 degree. • b. Supernatant was separated from cell pellet. • 4. Dilute proteomes to 1 mg/mL in PBS and aliquot appropriate reaction volume (49 μL for probe only; 48 μL for competition+probe) • 5. Cells were treated with 50× inhibitor. • a. Incubated for 1Hr at 37 degree. • 6. Cells were treated with 50× Probe (JWB003). • a. Incubated for 1Hr at 37 degree. • 7. Add 6 μL of master mix to each alkyne probe-labeled sample. • a. 1 μL of 1.25 mM Rh-N3 • b. 1 μL of fresh 50 mM TCEP • c. 3 μL of 1.7 mM TBTA stock • d. 1 μL of 50 mM CuSO4 • 8. Vortex samples. • 9. Incubate at room temperature for 1 hr • 10. Quench with 17 μL of 4×SDS-PAGE loading buffer+βME and vortex tubes. • 11. Analyze 30 μL samples by SDS-PAGE immediately. [B] Labeling HEK293T Cells to Determine Target Proteins of JWB003 in Live Cells (In Situ) • 1. Complete media was removed from HEK293T cells and replaced with serum free media containing JWB003 at the appropriate final concentration • a. Cells were placed in incubator for appropriate time at 37 degree 5% CO2 • 2. Cells were washed • a. 2× warm PBS • b. 2× cold PBS • c. Harvest cells in cold PBS • 3. Cells were transferred to Eppendorf tube • 4. Cells were lysed via tip sonicator • 5. Cells were fractionated into membrane and soluble fraction • a. 100,000×G for 45 minutes at 4 degrees • b. Supernatant was separated from cell pellet. • 6. Dilute proteomes to 1 mg/mL and aliquot appropriate reaction volume (50 μL) • 7. Add 6 μL of master mix to each alkyne probe-labeled sample. • a. 1 μL of 1.25 mM Rh-N3 • b. 1 μL of fresh 50 mM TCEP • c. 3 μL of 1.7 mM TBTA stock • d. 1 μL of 50 mM CuSO4 • 8. Vortex samples. • 9. Incubate at room temperature for 1 hr. • 10. Quench with 17 μL of 4×SDS-PAGE loading buffer+βME and vortex tubes. • 11. Analyze 30 μL samples by SDS-PAGE immediately. [C] […]

T2 sequence (P51556 whole entry): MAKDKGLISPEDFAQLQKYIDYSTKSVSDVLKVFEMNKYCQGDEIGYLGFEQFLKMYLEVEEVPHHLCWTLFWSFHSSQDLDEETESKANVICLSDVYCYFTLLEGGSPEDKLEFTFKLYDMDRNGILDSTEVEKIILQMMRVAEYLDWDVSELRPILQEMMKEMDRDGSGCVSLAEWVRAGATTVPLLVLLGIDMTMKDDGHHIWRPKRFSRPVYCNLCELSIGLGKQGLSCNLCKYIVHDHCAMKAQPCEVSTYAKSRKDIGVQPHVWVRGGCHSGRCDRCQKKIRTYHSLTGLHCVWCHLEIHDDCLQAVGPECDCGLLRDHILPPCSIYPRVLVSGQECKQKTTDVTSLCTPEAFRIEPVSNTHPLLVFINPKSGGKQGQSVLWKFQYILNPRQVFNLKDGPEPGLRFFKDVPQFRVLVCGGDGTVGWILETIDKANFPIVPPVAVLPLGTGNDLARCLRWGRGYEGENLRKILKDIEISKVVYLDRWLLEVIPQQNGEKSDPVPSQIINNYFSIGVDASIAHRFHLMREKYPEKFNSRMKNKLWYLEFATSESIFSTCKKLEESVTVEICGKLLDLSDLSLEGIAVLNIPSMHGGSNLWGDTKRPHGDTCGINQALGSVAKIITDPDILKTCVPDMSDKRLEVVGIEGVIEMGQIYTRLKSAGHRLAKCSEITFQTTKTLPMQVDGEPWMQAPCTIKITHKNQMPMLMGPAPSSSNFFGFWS
T3 sequence (P23743 whole entry, the tested form may be a part): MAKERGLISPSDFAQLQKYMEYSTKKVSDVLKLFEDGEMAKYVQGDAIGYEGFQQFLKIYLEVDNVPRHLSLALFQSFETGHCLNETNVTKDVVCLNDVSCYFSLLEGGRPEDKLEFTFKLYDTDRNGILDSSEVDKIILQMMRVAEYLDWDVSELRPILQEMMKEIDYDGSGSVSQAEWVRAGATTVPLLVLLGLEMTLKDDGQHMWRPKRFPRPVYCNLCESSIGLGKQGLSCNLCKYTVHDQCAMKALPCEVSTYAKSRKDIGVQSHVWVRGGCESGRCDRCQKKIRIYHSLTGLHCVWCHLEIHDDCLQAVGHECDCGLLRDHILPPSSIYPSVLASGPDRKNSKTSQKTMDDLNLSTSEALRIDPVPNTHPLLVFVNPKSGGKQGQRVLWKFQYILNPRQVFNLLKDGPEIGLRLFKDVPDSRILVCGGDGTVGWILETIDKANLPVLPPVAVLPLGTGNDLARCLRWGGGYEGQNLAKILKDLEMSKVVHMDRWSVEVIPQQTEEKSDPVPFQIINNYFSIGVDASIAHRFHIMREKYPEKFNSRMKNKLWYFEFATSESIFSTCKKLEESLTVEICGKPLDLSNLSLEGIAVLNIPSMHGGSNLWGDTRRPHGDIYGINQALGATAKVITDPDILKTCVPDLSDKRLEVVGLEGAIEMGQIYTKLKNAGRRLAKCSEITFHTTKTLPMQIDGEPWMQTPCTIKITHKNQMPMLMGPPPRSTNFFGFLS
T1 sequence (P51556 whole entry): as the sequence (P51556 whole entry) above

SMILES	blockade of DGKα ATP probe labeling [1]	competition at probe-modified peptides from DAGKc and DAGKa subdomains of DGKα ([2]; ATP 1 mM) [%]	inhibition at 1000 µM ([2]; read-out: inhibition of probe labeling at DGKα C1 site (K237)) [%]	inhibition of JWB003 probe labeling of hDGKa [3]
Nc1ncnc2c1ncn2[C@@H]1O[C@H](COP(=O)(O)OP(=O)(O)OP(=O)(O)O)[C@@H](O)[C@H]1O [ATP, adenosine triphosphate]	global reductions in fluorescent protein signals	~94	~58	
CCCCCCCCCCCCCC(=O)O[C@@H]1[C@@H](C)[C@@]2(O)[C@@H](C=C(CO)C[C@]3(O)C(=O)C(C)=C[C@@H]23)[C@@H]2C(C)(C)[C@]12OC(C)=O [PMA]				Probe labeling is inhibited
NC(=O)CI [iodoacetamide]				labeling is inhibited
